Measured values: patent publication US20100323989A1, “PHARMACEUTICAL COMBINATIONS USEFUL FOR TREATING HCV” (Gilead Sciences, Inc., priority 2009, published 2010)
Several values for one entry are separate records, joined by “and”; a condition that tells them apart may be missing. Identical values can stand only once. Like-named read-outs stand apart in the source and are kept apart here.

How the values were obtained:
[1] = system: HCV genotype 1b replicon cells (Huh-luc); assay: EC50 determination in HCV genotype 1b Huh-luc replicon cells (luciferase); assay type: cell-based; details: Hepatitis C virus, 72 h, 3 days, average ± standard deviation
Procedure: (§1) HCV genotype 1b replicon cells (Huh-luc) were obtained from Reblikon (Mainz, Germany). The replicon in these cells is designated I389luc-ubi-neo/NS3-3′/ET and encodes a selectable resistance marker (neomycin phosphotransferase) as well as the firefly luciferase reporter gene. Huh-luc cells were maintained in Dulbecco's Modified Eagle's Medium (DMEM; GIBCO, Carlsbad, Calif.) supplemented with 10% fetal bovine serum (FBS; Hyclone, Logan, Utah) and 0.5 mg/mL of G-418 (GIBCO). Cells were passaged twice a week and maintained at subconfluent levels.
Replicon cells were seeded in 96-well plates at a density of 5×10^3 cells per well in 100 μL of DMEM culture medium, excluding G-418. Compounds 1 and 2 were serially diluted 1:3 in 100% DMSO (Sigma). These serial dilutions were added to the cells at a 1:200 dilution to achieve a final concentration of 0.5% DMSO in a total volume of 200 μL. […] HCV replication levels in drug-treated samples were expressed as a percentage of those in untreated controls (defined as 100%), and data were fit to the logistic dose response equation y=a/(1+(x/b)c) using XLFit4 software (IDBS, Emeryville, Calif.). EC50 values were calculated from the resulting equations as described previously (Delaney, W. E., et al., Antimicrobial Agents Chemotherapy, 45(6):1705-1713 (2001)).

[2] = system: HCV genotype 1b replicon cells (Huh-luc); assay: Combination study in Huh-luc replicon cells analysed with MacSynergy II; assay type: cell-based; details: Compound 1 in combination with Compound 2, MacSynergy II
Procedure: as §1
For each individual drug, the EC50 value was selected as the midpoint for the concentration range tested. Cells were incubated for three days and analyzed for luciferase expression as indicated above. For the combination study, two independent experiments were performed in triplicate.
The calculated volumes of surface deviations are expressed in nM2%. Per Prichard and Shipman, combination effects are defined as:
Highly synergistic if volumes >100 nM^2.
Slightly synergistic if volumes are >50 and ≦100 nM^2.
Additive if volumes are >−50 nM^2 and ≦50 nM^2.
Slightly antagonistic if volumes are >−100 nM^2 and ≦−50 nM^2.
Antagonistic if volumes are ≦−100 nM^2.

[3] = system: wild-type 1b Con-1 PI-Luc replicon; assay: Transient transfection replicon assay, wild type; assay type: cell-based, HCV genotype 1b; details: Hepatitis C virus
[4] = system: 1b Con-1 PI-Luc replicon with NS5B polymerase mutation Y448H; assay type: cell-based, HCV genotype 1b; details: ratio of mutant EC50 to wild type EC50, NS5B Y448H
[5] = system: 1b PI-luc replicon with NS3 protease mutation V36M; assay type: cell-based, HCV genotype 1b; details: ratio of mutant EC50 to wild type EC50, NS3 V36M
[6] = system: 1b PI-luc replicon with NS3 protease mutation T54A; assay type: cell-based, HCV genotype 1b; details: ratio of mutant EC50 to wild type EC50, NS3 T54A
[7] = system: 1b PI-luc replicon with NS3 protease mutation R155K; assay type: cell-based, HCV genotype 1b; details: ratio of mutant EC50 to wild type EC50, NS3 R155K
[8] = system: 1b PI-luc replicon with NS3 protease mutation A156T; assay type: cell-based, HCV genotype 1b; details: ratio of mutant EC50 to wild type EC50, NS3 A156T
[9] = system: 1b PI-luc replicon with NS3 protease mutation D168E; assay type: cell-based, HCV genotype 1b; details: ratio of mutant EC50 to wild type EC50, NS3 D168E
[10] = system: 1b PI-luc replicon with NS3 protease mutation D168V; assay type: cell-based, HCV genotype 1b; details: ratio of mutant EC50 to wild type EC50, NS3 D168V
[11] = Pharmacokinetic drug-drug interaction study, single dose with multiple-dose partner, healthy subjects (Example 6); assay type: in vivo, human; details: for AUC(0-t) / AUC(0-inf) / Cmax / half-life: human, plasma, Group 3, human; for AUC(0-t): read-out: Compound 2 AUC0-last, Mean (% CV); for AUC(0-inf): read-out: Compound 2 AUCinf, Mean (% CV); for Cmax: read-out: Compound 2 Cmax, Mean (% CV); for half-life: read-out: Compound 2 T1/2, Median (min, max) (converted)
Procedure: In this study, healthy subjects were randomized into one of the following three treatment groups: […] Treatment Group 3 (N=20): […] Serial blood samples for analysis of plasma concentrations of Compound 2 were collected up to 72 hours post-morning dose on Days 1 and 10 to determine systemic drug exposure.

[12] = system: HCV 1b-con replicon cells; assay: Long-term (20 days, 6 passages) treatment of HCV replicon cells, HCV RNA by Real-Time RT PCR; assay type: cell-based, HCV genotype 1b; details: from baseline, compounds at 10 times their EC50, mean ± SD
Procedure: as §1
Both compounds were used at concentrations 10 times over their respective EC50 values. In brief, replicon cells (10^6 cells) were plated in a T75 flask in 15 mL of supplemented DMEM without G418. […] At each passage, cells were trypsinized, 10^6 cells were frozen in […] of RLT RNA lysis buffer (QIAGEN), and an additional 10^6 cells were seeded into another T75 flask with fresh medium and inhibitors. At the end of the assay, RNA was extracted from frozen replicon cells saved at the time of passage using QIAGEN RNeasy spin kit and was analyzed in a Real-Time RT PCR assay (Applied Biosystems).

[13] = Multiple-dose pharmacokinetic interaction study in healthy subjects (Example 5); assay type: in vivo, human; details: plasma, human, oral, Compound 2 (75 mg BID) alone, Day 7
[14] = Group 3, Compound 1 + Compound 2 / Compound 2 alone
[15] = Group 3, Compound 2 75 mg with Compound 1 40 mg BID vs Compound 2 75 mg alone
[16] = 75 mg, Compound 2 75 mg SD alone
[17] = Compound 2 75 mg SD + Compound 1 40 mg BID

SMILES: COc1ccc2c(O[C@@H]3C[C@H]4C(=O)N[C@]5(P(=O)(O)Cc6c(F)cccc6F)C[C@H]5CCCCCCC[C@H](NC(=O)OC5CCCC5)C(=O)N4C3)cc(-c3csc(NC(C)C)n3)nc2c1Cl [Compound 2]
- EC50 [1]: 11 ± 3 nM
- Interaction [2]: additive
- EC50 ([3]; Table 3 (NS5B mutation study)): 50.7 nM
- EC50 ([3]; Table 4 (NS3 protease mutation study)): 21.4 nM
- Fold Resistance Y448H [4]: 1.0 fold
- Fold Resistance V36M [5]: 3.0 fold
- Fold Resistance T54A [6]: 0.6 fold
- Fold Resistance R155K [7]: 566.3 fold
- Fold Resistance A156T [8]: 1882.4 fold
- Fold Resistance D168E [9]: 120.0 fold
- Fold Resistance D168V [10]: 1832.3 fold
- Compound 2 AUC0-last, % Geometric Least-Squares Mean Ratio (90% CI) [11, 14]: 83.8 (75.5, 93.2) %
- Compound 2 AUCinf, % Geometric Least-Squares Mean Ratio (90% CI) [11, 14]: 84.9 (76.6, 94.1) %
- Compound 2 Cmax, % Geometric Least-Squares Mean Ratio (90% CI) [11, 14]: 81.3 (72.5, 91.1) %
- Median terminal elimination half-lives of Compound 2, comparison between the two treatments ([11]; Group 3, Compound 2 75 mg alone vs with Compound 1 40 mg BID): similar
- decrease in AUC0-last of Compound 2 [11, 15]: 16%
- decrease in AUCinf of Compound 2 [11, 15]: 15%
- decrease in Cmax of Compound 2 [11, 15]: 19%
- AUC(0-t) [11, 16]: 8790 ng·h/mL
- AUC(0-inf) [11, 16]: 9460 ng·h/mL
- Cmax [11, 16]: 1040 ng/mL
- half-life [11, 16]: 5.05 h
- AUC(0-t) [11, 17]: 7270 ng·h/mL
- AUC(0-inf) [11, 17]: 7920 ng·h/mL
- Cmax [11, 17]: 830 ng/mL
- half-life [11, 17]: 6.06 h
- HCV RNA Change in Log10, Passage 5 [12]: −2.9 ± 0.2 Log10
- HCV RNA Change in Log10, Passage 6 [12]: −3.1 Log10 and −3.1 ± 0.4 Log10
- Cmax ([13]; read-out: Compound 2 Cmax, Mean (% CV)): 4500 ng/mL
- concentration at 12 h ([13]; read-out: Compound 2 Ctau, Mean (% CV)): 1550 ng/mL
